One assay concerns the target T1, MRSA Pyk (Staphylococcus aureus, UniProt Q6GG09).
T1 construct: made in house; host or cells: E. coli BL-21 (DE3)
Description: MRSA pyruvate kinase (PK) activity, continuous LDH-coupled assay. It is filed as biochemical, methicillin resistant S. aureus (MRSA252). The source says: Genomic DNA of MRSA strain Sanger 252 extracted using DNeasy Tissue Kit™ (Qiagen™) was used as a template to generate the His-tagged MRSA PK. Human cDNA from MCF-7 breast cancer cell line (courtesy of Dr. J Wong, BC Cancer Research Center (Vancouver, Canada)) was used as a template to generate the full-length human M2 PK enzyme. The following primer sets were used creating appropriate restriction sites (NdeI and XhoI sites underlined): For cloning of MRSA PK: M27F 5′-[…]-3′ and M27R 5′-[…]-3′, for cloning of human M2 PK isoform: hM2F 5′-[…]-3′ and hM2R 5′-[…]-3′. The resulting PCR fragments for each construct were cloned into the NdeI and XhoI unique sites of the bacterial expression vector pET-28a (+) (Novagen™). […] The sequence and the correct reading frame of all constructs were verified by sequencing. Human M1, R and L PK constructs in pET-28-a(+) vectors (courtesy of Dr. L. Cantley, Harvard Medical, School (Boston, USA)) were used to generate relevant recombinant His-tagged human PK isoforms.
MRSA and human constructs in pET-28a(+) were used to express relevant recombinant PK proteins in E. coli BL-21 (DE3). The proteins were expressed and purified using Ni-NTA agarose (Qiagen™) according to the manufacturer's protocol. Briefly, cells were grown to an absorbance of 0.4-0.5 at 600 nm in 2×YT medium, then induced with 0.1 mM IPTG for 3 h at 20° C. Cells were lysed by sonication on ice (3×10-s bursts with a 30-s recovery between bursts) in lysis buffer (0.2 mg/ml lysozyme, 50 mM Tris pH 7.5, 10 mM MgCl2, 200 mM NaCl, 100 mM KCl, 10% glycerol, 10 mM imidazole, 0.5% NP-40 and 1 mM DTT containing Complete™ protease inhibitor). Cell lysates were cleared by centrifugation (18,000×g in a Beckman™ JA-20 rotor) for 20 min at 4° C. and PK isoforms were purified by batch binding to Ni-NTA resin. The resins were then packed in columns (1×2 cm) and washed with 400 column volumes lysis buffer containing 30 mM imidazole. His-tagged PK isoforms were eluted with the same buffer containing 300 mM imidazole. The proteins were dialyzed overnight at 4° C. against 2000 volumes of ice-cold 30 mM Tris pH 7.5, 25 mM KCl, 5 mM MgCl2, 10% glycerol and 1 mM DTT to remove imidazole. All purification steps were done at 4° C.; enzymes were flash-frozen and stored at −70° C. Enzymatic activity of frozen protein preparations was stable for at least 10 months and up to 5 freeze/thaw cycles. Purity and physical integrity of proteins were assessed using SDS-polyacrylamide gel electrophoresis (SDS-PAGE) followed by coomassie blue staining. Protein concentration was estimated by Bradford assay (Bio-Rad Protein Assay™) using bovine serum albumin as a standard.
Candidate MRSA PK inhibitors were assayed for their ability to inhibit enzymatic activities of MRSA and human PKs. PK activity was determined using a continuous assay coupled to lactate dehydrogenase (LDH) in which the change in absorbance at 340 nm owing to oxidation of NADH was measured using a Benchmark Plus™ microplate spectrophotometer (Bio-Rad Laboratories, Hercules, Calif.). […] Reactions were initiated by the addition of 15 nM of one of the PK enzymes. PK activity proportional to the rate of change at 340 nm was expressed as specific activity (μmol/min/mg), which is defined as the amount of PK that catalyzes the formation of one micromole of either product per minute. Inhibitors were dissolved in DMSO with the final concentration of the solvent never exceeding 1% of the assay volume. IC50 values were calculated by curve fitting on a four-parameter dose-response model with variable slope using Graphpad Prism 5.0™ (GraphPad™ Software Inc., La Jolla, Calif.). In all studies, less than 10% of total PEP was exhausted during the reaction. Reactions were performed at 30° C. for up to 5 min. All values determined represent at least two measurements, in triplicate (Tables 1-6) or duplicate unless mentioned otherwise. […]

The subject of a further assay is S. aureus (ATCC29213). Description: In vitro susceptibility, broth microdilution (MIC). The note with it: Staphylococcus aureus; S. aureus ATCC29213; 18-24 h, 37 C; read-out: Antimicrobial activity (MIC) S. aureus ATCC29213. It is filed as cell-based. The source says:
Epidemic methicillin resistant S. aureus (MRSA) strain sequenced at the Sanger Centre (MRSA252, NRS71) was obtained from NARSA (Network on Antimicrobial Resistance in S. aureus). Methicillin sensitive S. aureus (ATCC 29213 and 25923), methicillin resistant S. aureus (ATCC BAA-1762), and Salmonella typhimurium (ATCC BAA-185) were obtained from ATCC, The Global Bioresource Center. Acinetobacter baumannii (ATCC 19606 and ATCC 17978), Klebsiella pneumonia (C238), vancomycin resistant Enterococci #2 (2010A) (VRE#2), MRSA (USA400, MW2) and Pseudomonas aeruginosa (PA0-1) were obtained from the laboratory of Dr B. B. Finlay at the University of British Columbia (Vancouver, Canada).
The antimicrobial activities of PK inhibitor candidates were determined using the 96-well microtiter standard 2-fold serial broth microdilution method as described by CLSI (formerly NCCLS) with the various gram-positive and gram-negative bacteria species mentioned above. Bacteria from a single colony were grown, overnight in either BHI Broth (VRE), mueller hinton broth (S. aureus 29213; MRSA USA400, A. baumannii 19606, MRSA BAA-1762) or L-broth (P. aeruginosa, S. typhimurium, K. pneumonia and A. baumannii 17978). […] Culture plates were incubated for 18-24 h at 37° C., and optical density at 600 nm (OD600) was measured using a Benchmark Plus™ microplate spectrophotometer (Bio-Rad™). The absorbance control values for the series containing CAMHB and inhibitor were subtracted as background from the corresponding infected wells. Minimal inhibitory concentration (MIC) was defined as the lowest concentration of test compound leading to complete inhibition of cell growth in relation to compound-free control wells as determined by optical density. Vancomycin, methicillin and ciprofloxicin were used as reference compounds. All assays were run in triplicate or duplicate. Experiments were replicated at least twice to verify reproducibility using the above conditions.
(In general: Dilution methods test growth across graded concentrations, often in twofold steps.)

Values after ≈ are worked out from the molar mass of the structure shown.

T1 sequence (Q6GG09 whole entry): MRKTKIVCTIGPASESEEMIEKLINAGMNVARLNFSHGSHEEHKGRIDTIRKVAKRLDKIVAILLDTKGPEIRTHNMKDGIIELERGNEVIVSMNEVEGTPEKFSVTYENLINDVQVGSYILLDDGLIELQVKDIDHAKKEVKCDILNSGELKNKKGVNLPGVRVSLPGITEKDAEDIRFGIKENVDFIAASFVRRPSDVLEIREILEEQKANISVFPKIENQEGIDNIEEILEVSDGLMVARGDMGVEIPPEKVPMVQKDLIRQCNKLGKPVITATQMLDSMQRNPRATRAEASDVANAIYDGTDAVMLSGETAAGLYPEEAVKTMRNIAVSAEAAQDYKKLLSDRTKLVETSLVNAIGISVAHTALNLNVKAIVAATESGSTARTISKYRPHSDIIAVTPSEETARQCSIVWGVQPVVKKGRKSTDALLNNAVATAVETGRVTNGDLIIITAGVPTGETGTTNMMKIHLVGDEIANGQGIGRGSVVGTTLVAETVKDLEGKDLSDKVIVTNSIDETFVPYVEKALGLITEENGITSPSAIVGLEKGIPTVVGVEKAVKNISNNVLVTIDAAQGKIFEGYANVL

Take `O=C(NC1CN2CCC1CC2)c1c(/C=C/c2ccc(Cl)cc2)[nH]c2cc(Br)ccc12` (stereo not shown) [Compound 26, (E)-6-Bromo-2-(4-chlorostyryl)-N-(quinuclidin-3-yl)-1H-indole-3-carboxamide]: the IC50 (commonly the concentration that gives 50% inhibition) on MRSA Pyk lay in the range of 0.1 to 1 µM. Besides, in the assay with S. aureus (ATCC29213), the MIC (as a rule, the smallest concentration in the dilution series that meets the test's criterion for growth inhibition) is 8 µg/mL (≈ 16.5 µM).
On to `O=C(NCc1ccccc1)c1c(/C=C/c2ccc(Cl)cc2)[nH]c2cc(Br)ccc12` [Compound 27, (E)-N-Benzyl-6-bromo-2-(4-chlorostyryl)-1H-indole-3-carboxamide], for which the IC50 against MRSA Pyk is less than 0.1 µM. Moreover, the MIC in the assay with S. aureus (ATCC29213) is more than 64 µg/mL.
The matching figures for `O=C(NCCO)c1c(/C=C/c2ccc(Cl)cc2)[nH]c2cc(Br)ccc12` [Compound 28, (E)-6-Bromo-2-(4-chlorostyryl)-N-(2-hydroxyethyl)-1H-indole-3-carboxamide]: 0.1 to 1 µM and more than 64 µg/mL.
On MRSA Pyk, `O=C(NCCN1CCC(O)CC1)c1c(/C=C/c2ccc(Cl)cc2)[nH]c2cc(Br)ccc12` [Compound 30, (E)-6-Bromo-2-(4-chlorostyryl)-N-(2-(4-hydroxypiperidin-1-yl)ethyl)-1 H-indole-3-carboxamide] returned an IC50 of 0.1 to 1 µM. For the same molecule, the MIC in the assay with S. aureus (ATCC29213) is 16 µg/mL (≈ 31.8 µM).
On the same counts, the results for `CN1CCN(CCNC(=O)c2c(/C=C/c3ccc(Cl)cc3)[nH]c3cc(Br)ccc23)CC1` [Compound 31, (E)-6-Bromo-2-(4-chlorostyryl)-N-(2-(4-methylpiperazin-1-yl)ethyl)-1 H-indole-3-carboxamide] are less than 0.1 µM and 16 µg/mL (≈ 31.9 µM).
Regarding `O=C(NC(CO)CO)c1c(/C=C/c2ccc(Cl)cc2)[nH]c2cc(Br)ccc12` [Compound 32, (E)-6-Bromo-2-(4-chlorostyryl)-N-(1,3-dihydroxypropan-2-yl)-1H-indole-3-carboxamide], the IC50 against MRSA Pyk was less than 0.1 µM. Moreover, the MIC in the assay with S. aureus (ATCC29213) is more than 64 µg/mL.
On the same counts, the results for `CC(C)(C)OC(=O)N1CCN(CCNC(=O)c2c(/C=C/c3ccc(Cl)cc3)[nH]c3cc(Br)ccc23)CC1` [Compound 33, (E)-tert-Butyl 4-(2-(6-bromo-2-(4-chlorostyryl)-1H-indole-3-carboxamido)ethyl)piperazine-1-carboxylate] are more than 1 µM and more than 64 µg/mL.
`CN(C)CCNC(=O)c1c(/C=C/c2cc(Cl)cc(Cl)c2)[nH]c2cc(Br)ccc12` [Compound 34, (E)-6-Bromo-2-(3,5-dichlorostyryl)-N-(2-(dimethylamino)ethyl)-1H-indole-3-carboxamide] yielded an IC50 at MRSA Pyk of more than 1 µM. In the assay on S. aureus (ATCC29213), the MIC is 16 µg/mL (≈ 33.2 µM).
Turning to `COc1ccc(/C=C/c2[nH]c3cc(Br)ccc3c2C(=O)NCCO)nc1` [Compound 35, (E)-6-Bromo-N-(2-hydroxyethyl)-2-(2-(5-methoxypyridin-2-yl)vinyl)-1 H-indole-3-carboxamide], the half-inhibitory concentration (IC50) against MRSA Pyk lay in the range of 0.1 to 1 µM. In the assay on S. aureus (ATCC29213), the MIC was more than 64 µg/mL.
The matching figures for `CN(C)C(=O)c1c(/C=C/c2ccc(Cl)nc2)[nH]c2cc(Br)ccc12` [Compound 36, (E)-6-bromo-2-(2-(6-chloropyridin-3-yl)vinyl)-N,N-dimethyl-1H-indole-3-carboxamide]: 0.1 to 1 µM and more than 64 µg/mL.
The matching figures for `O=C(O)CNC(=O)c1c(/C=C/c2ccc(Cl)cc2)[nH]c2cc(Br)ccc12` [Compound 38, (E)-2-(6-Bromo-2-(4-chlorostyryl)-1H-indole-3-carboxamido)acetic Acid]: less than 0.1 µM and more than 64 µg/mL.
On the same counts, the results for `O=C(O)CCNC(=O)c1c(/C=C/c2ccc(Cl)cc2)[nH]c2cc(Br)ccc12` [Compound 39, (E)-3-(6-Bromo-2-(4-chlorostyryl)-1H-indole-3-carboxamido)propanoic Acid] are less than 0.1 µM and more than 64 µg/mL.
Turning to `O=C(NCCC1CCOCC1)c1c(/C=C/c2ccc(Cl)cc2)[nH]c2cc(Br)ccc12` [Compound 42, (E)-6-Bromo-2-(4-chlorostyryl)-N-(2-(tetrahydro-2H-pyran-4-yl)ethyl)-1H-indole-3-carboxamide], the half-inhibitory concentration (IC50) against MRSA Pyk fell in the range of 0.1 to 1 µM. Moreover, the MIC with S. aureus (ATCC29213) was more than 64 µg/mL.
The molecule `O=C(c1c(CCc2ccc(Cl)cc2)[nH]c2cc(Br)ccc12)N1CCOCC1` [Compound 47, (6-Bromo-2-(4-chlorophenethyl)-1H-indol-3-yl)(morpholino)methanone] displayed an IC50 against MRSA Pyk of more than 1 µM. Also, the MIC with S. aureus (ATCC29213) is more than 64 µg/mL.
On the same counts, the results for `CNC(=O)c1c(CCc2ccc(Cl)cc2)[nH]c2cc(Br)ccc12` [Compound 49, 6-Bromo-2-(4-chlorophenethyl)-N-methyl-1H-indole-3-carboxamide] are more than 1 µM and more than 64 µg/mL.
Regarding `CN(C)C(=O)c1c(CCc2ccc(Cl)cc2)[nH]c2cc(Br)ccc12` [Compound 50, 6-Bromo-2-(4-chlorophenethyl)-N,N-dimethyl-1H-indole-3-carboxamide], at MRSA Pyk, the IC50 was more than 1 µM. Also, the MIC with S. aureus (ATCC29213) is more than 64 µg/mL.
On the same counts, the results for `CN(C)C(=O)c1c(CCc2ccc(Cl)cc2)[nH]c2ccccc12` [Compound 51, 2-(4-Chlorophenethyl)-N,N-dimethyl-1H-indole-3-carboxamide] are more than 1 µM and more than 64 µg/mL.
The matching figures for `O=C(NCCN1CCNCC1)c1c(/C=C/c2ccc(Cl)cc2)[nH]c2cc(Br)ccc12` [Compound 52, (E)-6-Bromo-2-(4-chlorostyryl)-N-(2-(piperazin-1-yl)ethyl)-1H-indole-3-carboxamide]: less than 0.1 µM and 16 µg/mL (≈ 32.8 µM).
At MRSA Pyk, `O=C(NC1CCNCC1)c1c(/C=C/c2ccc(Cl)cc2)[nH]c2cc(Br)ccc12` [Compound 53, (E)-6-Bromo-2-(4-chlorostyryl)-N-(piperidin-4-yl)-1H-indole-3-carboxamide] had an IC50 of less than 0.1 µM. In the assay on S. aureus (ATCC29213), the MIC stood at 8 µg/mL (≈ 17.4 µM).
`N[C@@H](CCCCNC(=O)c1c(/C=C/c2ccc(Cl)cc2)[nH]c2cc(Br)ccc12)C(=O)O` [Compound 54, (S,E)-2-Amino-6-(6-bromo-2-(4-chlorostyryl)-1H-indole-3-carboxamido)hexanoic Acid]: the IC50 against MRSA Pyk is less than 0.1 µM. The MIC in the assay on S. aureus (ATCC29213) was more than 64 µg/mL.

Values taken from patent publication US20180312493A1, “Antibiotic Compounds, Pharmaceutical Formulations Thereof And Methods And Uses Therefor” (Simon Fraser University, priority 2015, published 2018).
